Experimental data reported in patent US9221832B2, “Heterocyclic amide derivatives as P2X7 receptor antagonists” (ACTELION PHARMACEUTICALS LTD., priority 2011, dated 2015).
pIC50: −log10 of the molar value.

target: human recombinant P2X7 receptor (Homo sapiens (Human), UniProt Q99572); experiment: YO-PRO assay: P2X7 receptor antagonistic activity; assay type: cell-based; details: HEK cells expressing human P2X7
Description: The P2X7 receptor antagonistic activity of the compounds of formula (I) is determined in accordance with the following experimental method.
Cell Line Generation and YO-PRO Assay
Cell line generation was performed in general according to established molecular cloning protocols. Specifically, RNA was extracted from human whole blood using the Qiagen RNeasy kit (Qiagen, CH) according to the manufacturer's instructions. Subsequently cDNA was made (Superscript II, Invitrogen AG, CH) and the human P2X7 gene (genbank ref. BC011913) was amplified with the following primers: […] and […]. The amplified sequence was subsequently ligated into a pcDNA3.1 (+) NotI, NheI digested plasmid. […] Following a 24 h exposure to DNA, cells were trypsinized and re-seeded at low density in the presence of 250 μg Geneticin. Geneticin resistant cells were then selected during two consecutive rounds of cloning by serial limiting dilution with visual inspection. Individual clones were screened for P2X7 expression by applying ATP and recording the resultant uptake of YO-PRO1. Specific cell clones were chosen based on RNA and protein expression. HEK cells stably expressing P2X7 were used to screen drugs using the YO-PRO1 assay. Cells were grown to confluency in adherent culture at 37° C. in a humidified 5% CO2 incubator (split 1/5 every 3-4 days with DMEM, 10% FCS, 1% Penicillin/Streptomycin, 250 μg/ml Geneticin). Adherent cells were detached by incubation with Trypsine (1 ml per 165 cm^2 dish) for 2 minutes, then washed off with 10 ml PBS (without Mg^2+ and Ca^2+), and resuspended in DMEM, 10% FCS, 1% Penicillin/Streptomycin, no Geneticin. […] During this time period, four time points were taken. Each time point comprised the average of several measurements made within a few seconds. […] The FLIPR tetra was equipped with Molecular Devices Screen Works system control software to define and run experimental protocols. […] For IC50 measurements the maximum intensity is plotted against the concentration of compound to determine IC50 values.

Sequence of human recombinant P2X7 receptor (Q99572 whole entry): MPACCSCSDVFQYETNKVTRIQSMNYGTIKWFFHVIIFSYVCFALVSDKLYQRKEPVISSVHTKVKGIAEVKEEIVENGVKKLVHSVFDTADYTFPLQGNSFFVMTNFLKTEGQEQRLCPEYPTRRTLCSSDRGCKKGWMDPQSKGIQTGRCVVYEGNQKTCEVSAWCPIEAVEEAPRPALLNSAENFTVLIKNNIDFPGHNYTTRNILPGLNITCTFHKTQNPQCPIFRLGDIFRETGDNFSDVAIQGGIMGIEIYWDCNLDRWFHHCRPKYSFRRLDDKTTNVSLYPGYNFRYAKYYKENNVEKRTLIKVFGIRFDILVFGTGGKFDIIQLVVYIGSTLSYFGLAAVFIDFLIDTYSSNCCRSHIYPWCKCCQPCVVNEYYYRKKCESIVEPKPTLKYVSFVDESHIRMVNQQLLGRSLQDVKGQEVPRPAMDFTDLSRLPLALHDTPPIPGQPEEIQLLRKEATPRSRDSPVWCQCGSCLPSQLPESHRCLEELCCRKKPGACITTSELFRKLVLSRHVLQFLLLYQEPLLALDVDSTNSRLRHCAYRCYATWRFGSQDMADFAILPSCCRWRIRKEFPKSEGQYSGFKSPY

pIC50	SMILES
< 5.32	COc1cc(C)nc2c1C(NC(=O)Cc1cccc(C(F)(F)F)c1Cl)CO2 (racemic) [Example 135, rac-2-(2-Chloro-3-trifluoromethyl-phenyl)-N-(4-methoxy-6-methyl-2,3-dihydro-furo[2,3-b]pyridin-3-yl)-acetamide]
< 5.00	CCOc1cc(C)nc2c1C(NC(=O)Cc1cccc(C(F)(F)F)c1Cl)CO2 (racemic) [Example 136, rac-2-(2-Chloro-3-trifluoromethyl-phenyl)-N-(4-ethoxy-6-methyl-2,3-dihydro-furo[2,3-b]pyridin-3-yl)-acetamide]
7.43	Cc1ccnc2c1C(NC(=O)Cc1cccc(C(F)(F)F)c1Cl)CO2 (racemic) [Example 137, rac-2-(2-Chloro-3-trifluoromethyl-phenyl)-N-(4-methyl-2,3-dihydro-furo[2,3-b]pyridin-3-yl)-acetamide]
7.00	Cc1cc(Cl)cc(Cl)c1CC(=O)NC1COc2nccc(C)c21 (racemic) [Example 138, rac-2-(2,4-Dichloro-6-methyl-phenyl)-N-(4-methyl-2,3-dihydro-furo[2,3-b]pyridin-3-yl)-acetamide]
6.57	COc1ccnc2c1C(NC(=O)Cc1cccc(C(F)(F)F)c1Cl)CO2 (racemic) [Example 139, rac-2-(2-Chloro-3-trifluoromethyl-phenyl)-N-(4-methoxy-2,3-dihydro-furo[2,3-b]pyridin-3-yl)-acetamide]
< 5.08	O=C(COc1ccc(Cl)cc1Cl)NC1COc2ncccc21 (racemic) [Example 140, rac-2-(2,4-Dichloro-phenoxy)-N-(2,3-dihydro-furo[2,3-b]pyridin-3-yl)-acetamide]
< 5.06	O=C(COc1ccc(Cl)c(Cl)c1)NC1COc2ncccc21 (racemic) [Example 141, rac-2-(3,4-Dichloro-phenoxy)-N-(2,3-dihydro-furo[2,3-b]pyridin-3-yl)-acetamide]
< 5.00	Cc1ccc(OCC(=O)NC2COc3ncccc32)c(C)c1 (racemic) [Example 142, rac-N-(2,3-Dihydro-furo[2,3-b]pyridin-3-yl)-2-(2,4-dimethyl-phenoxy)-acetamide]
7.19	O=C(Cc1cccc(C(F)(F)F)c1Cl)NC1COc2nc(Cl)ccc21 (racemic) [Example 143, rac-N-(6-Chloro-2,3-dihydro-furo[2,3-b]pyridin-3-yl)-2-(2-chloro-3-trifluoromethyl-phenyl)-acetamide]
7.30	Cc1cc(Cl)cc(Cl)c1CC(=O)NC1COc2nc(Cl)ccc21 (racemic) [Example 144, rac-N-(6-Chloro-2,3-dihydro-furo[2,3-b]pyridin-3-yl)-2-(2,4-dichloro-6-methyl-phenyl)-acetamide]
6.78	O=C(Cc1cccc(C(F)(F)F)c1Cl)NC1COc2c[n+]([O-])ccc21 (racemic) [Example 148, rac-2-(2-Chloro-3-trifluoromethyl-phenyl)-N-(6-oxy-2,3-dihydro-furo[2,3-c]pyridin-3-yl)-acetamide]
5.17	Cc1cc(Cl)cc(Cl)c1CC(=O)NC1COc2nccc(C(F)(F)F)c21 (racemic) [Example 151, rac-2-(2,4-Dichloro-6-methyl-phenyl)-N-(4-trifluoromethyl-2,3-dihydro-furo[2,3-b]pyridin-3-yl)-acetamide]
6.06	O=C(Cc1cccc(C(F)(F)F)c1Cl)NC1COc2nccc(C(F)(F)F)c21 (racemic) [Example 152, rac-2-(2-Chloro-3-trifluoromethyl-phenyl)-N-(4-trifluoromethyl-2,3-dihydro-furo[2,3-b]pyridin-3-yl)-acetamide]

Second part, the compound before the results:

SMILES	pIC50
O=C(Cc1cccc(C(F)F)c1Cl)NC1COc2ncccc21 (racemic) [Example 114, rac-2-(2-Chloro-3-difluoromethyl-phenyl)-N-(2,3-dihydro-furo[2,3-b]pyridin-3-yl)-acetamide]	8.12
O=C(Cc1cccc(C(F)(F)F)c1Cl)NC1COc2cnc(Cl)cc21 (racemic) [Example 115, rac-N-(5-Chloro-2,3-dihydro-furo[2,3-c]pyridin-3-yl)-2-(2-chloro-3-trifluoromethyl-phenyl)-acetamide]	7.09
O=C(Cc1ccc(Cl)cc1Cl)NC1COc2cnc(Cl)cc21 (racemic) [Example 116, rac-N-(5-Chloro-2,3-dihydro-furo[2,3-c]pyridin-3-yl)-2-(2,4-dichloro-phenyl)-acetamide]	6.46
Cc1cncc2c1C(NC(=O)Cc1cccc(C(F)(F)F)c1Cl)CO2 (racemic) [Example 128, rac-2-(2-Chloro-3-trifluoromethyl-phenyl)-N-(4-methyl-2,3-dihydro-furo[2,3-c]pyridin-3-yl)-acetamide]	8.25
O=C(Cc1cccc(C(F)(F)F)c1Cl)NC1COc2c1ccc[n+]2[O-] (racemic) [Example 129, rac-2-(2-Chloro-3-trifluoromethyl-phenyl)-N-(7-oxy-2,3-dihydro-furo[2,3-b]pyridin-3-yl)-acetamide]	6.91
Cc1cc(Cl)cc(Cl)c1CC(=O)NC1COc2cncc(C)c21 (racemic) [Example 131, rac-2-(2,4-Dichloro-6-methyl-phenyl)-N-(4-methyl-2,3-dihydro-furo[2,3-c]pyridin-3-yl)-acetamide]	7.85
O=C(Cc1cccc(C(F)(F)F)c1Cl)NC1COc2cncc(C3CC3)c21 (racemic) [Example 132, rac-2-(2-Chloro-3-trifluoromethyl-phenyl)-N-(4-cyclopropyl-2,3-dihydro-furo[2,3-c]pyridin-3-yl)-acetamide]	6.30
Cc1ccc2c(n1)OCC2NC(=O)Cc1c(C)cc(Cl)cc1Cl (racemic) [Example 133, rac-2-(2,4-Dichloro-6-methyl-phenyl)-N-(6-methyl-2,3-dihydro-furo[2,3-b]pyridin-3-yl)-acetamide]	7.37
Cc1ccc2c(n1)OCC2NC(=O)Cc1cccc(C(F)(F)F)c1Cl (racemic) [Example 134, rac-2-(2-Chloro-3-trifluoromethyl-phenyl)-N-(6-methyl-2,3-dihydro-furo[2,3-b]pyridin-3-yl)-acetamide]	7.68
Cc1cc(Cl)cc(Cl)c1CC(=O)NC1COc2ncccc21 (single isomer, unassigned) [Example 6, 2-(2,4-Dichloro-6-methyl-phenyl)-N-(2,3-dihydro-furo[2,3-b]pyridin-3-yl)-acetamide]	7.80
Cc1cc(Cl)cc(Cl)c1CC(=O)NC1COc2ncccc21 (single isomer, unassigned) [Example 7, 2-(2,4-Dichloro-6-methyl-phenyl)-N-(2,3-dihydro-furo[2,3-b]pyridin-3-yl)-acetamide]	8.46
Cc1cc(Cl)cc(Cl)c1CC(=O)NC1CCOc2ncccc21 (single isomer, unassigned) [Example 28, 2-(2,4-Dichloro-6-methyl-phenyl)-N-(3,4-dihydro-2H-pyrano[2,3-b]pyridin-4-yl)-acetamide]	7.54
Cc1cc(Cl)cc(Cl)c1CC(=O)NC1CCOc2ncccc21 (single isomer, unassigned) [Example 29, 2-(2,4-Dichloro-6-methyl-phenyl)-N-(3,4-dihydro-2H-pyrano[2,3-b]pyridin-4-yl)-acetamide]	6.76
O=C(Cc1cccc(C(F)(F)F)c1Cl)NC1COc2ncccc21 (single isomer, unassigned) [Example 73, 2-(2-Chloro-3-trifluoromethyl-phenyl)-N-(2,3-dihydro-furo[2,3-b]pyridin-3-yl)-acetamide]	8.00
O=C(Cc1cccc(C(F)(F)F)c1Cl)NC1COc2ncccc21 (single isomer, unassigned) [Example 74, 2-(2-Chloro-3-trifluoromethyl-phenyl)-N-(2,3-dihydro-furo[2,3-b]pyridin-3-yl)-acetamide]	8.33
CC(C(=O)NC1COc2ncccc21)c1ccc(Cl)cc1Cl (single isomer, unassigned) [Example 92, 2-(2,4-Dichloro-phenyl)-N-2,3-dihydro-furo[2,3-b]pyridin-3-yl-propionamide]	8.05
CC(C(=O)NC1COc2ncccc21)c1ccc(Cl)cc1Cl (single isomer, unassigned) [Example 93, 2-(2,4-Dichloro-phenyl)-N-2,3-dihydro-furo[2,3-b]pyridin-3-yl-propionamide]	6.86
CC(C(=O)NC1COc2ncccc21)c1ccc(Cl)cc1Cl (single isomer, unassigned) [Example 94, 2-(2,4-Dichloro-phenyl)-N-2,3-dihydro-furo[2,3-b]pyridin-3-yl-propionamide]	7.96
CC(C(=O)NC1COc2ncccc21)c1ccc(Cl)cc1Cl (single isomer, unassigned) [Example 95, 2-(2,4-Dichloro-phenyl)-N-2,3-dihydro-furo[2,3-b]pyridin-3-yl-propionamide]	6.98
N#Cc1cccc(CC(=O)NC2COc3ncccc32)c1Cl (single isomer, unassigned) [Example 98, 2-(2-Chloro-3-cyano-phenyl)-N-2,3-dihydro-furo[2,3-b]pyridin-3-yl-acetamide]	7.54
